Each structure is given as a SMILES string. pIC50: −log10 of the molar value. Values after ≈ are worked out from the molar mass of the structure shown.

The test system of assay [1] is Candida parapsilosis. In words: Antifungal activity against Candida parapsilosis ATCC22019 by CLSI method. The assay is classed as functional. The following applies: Lodderomyces parapsilosis.
For assay [2], the system named is Candida albicans. In words: Antifungal activity against Candida albicans Ca1055 by CLSI method. The class given is functional.
Assay [3] concerns Candida albicans. In words: Antifungal activity against Candida albicans Ca2323/ORF6.945 by CLSI method. The assay is classed as functional.
Assay [4] in a line: Inhibition of Candida albicans IFO1060 1,3-beta-D-glucan synthase.
In assay [5] the test system is Candida tropicalis. In words: Antifungal activity against Candida tropicalis K337 by agar incorporation method. The assay is classed as functional.
Assay [6] relates to Candida parapsilosis. In words: Antifungal activity against Candida parapsilosis K1154 by agar incorporation method. The assay is classed as functional. The note with it: Lodderomyces parapsilosis.
Assay [7] deals with Candida tropicalis. In words: Antifungal activity against Candida tropicalis K1155 by agar incorporation method. The assay is classed as functional.
Assay [8] deals with Candida albicans. In words: Antifungal activity against Candida albicans K1133 by agar incorporation method. The class given is functional.
In assay [9] the test system is Candida albicans. In words: Antifungal activity against Candida albicans K335 by agar incorporation method. The class given is functional.
Assay [10] can be described thus: Inhibition of Beta-1,3-glucan synthase in wild type Schizosaccharomyces pombe.
Assay [11] can be described thus: Inhibition of Beta-1,3-glucan synthase in Schizosaccharomyces pombe pbr1-8.
Assay [12] deals with Candida albicans. In words: Antifungal activity against Candida albicans K1082 by agar incorporation method. The assay is classed as functional.
Assay [13] relates to Candida albicans. In words: Antifungal activity against Candida albicans K341 by agar incorporation method. The class given is functional.
The test system of assay [14] is Candida parapsilosis. In words: Antifungal activity against Candida parapsilosis K332 by agar incorporation method. The note with it: Lodderomyces parapsilosis. The assay is classed as functional.
Assay [15] deals with Meyerozyma guilliermondii. In words: Antifungal activity against Candida guilliermondii K334 by agar incorporation method. The assay is classed as functional.
Assay [16] deals with Pichia kudriavzevii. In words: Antifungal activity against Candida krusei K1153 by agar incorporation method. The class given is functional.
Assay [17] can be described thus: Inhibition of Beta-1,3-glucan synthase in Schizosaccharomyces pombe pbr1-6.
For assay [18], the system named is Cyberlindnera jadinii. In words: Antifungal activity against Candida utilis K482 by agar incorporation method. The note with it: Williopsis jadinii. The assay is classed as functional.
Assay [19] deals with Endochitinase A1 (Aspergillus fumigatus, UniProt Q873Y0). In words: Inhibition of Aspergillus fumigatus chiA1 (Arg28 to His337) expressed in Pichia pastoris incubated for 70 mins using 4MU-NAc3 as substrate by fluorescence method.
Chain of Endochitinase A1 (Q873Y0 whole entry): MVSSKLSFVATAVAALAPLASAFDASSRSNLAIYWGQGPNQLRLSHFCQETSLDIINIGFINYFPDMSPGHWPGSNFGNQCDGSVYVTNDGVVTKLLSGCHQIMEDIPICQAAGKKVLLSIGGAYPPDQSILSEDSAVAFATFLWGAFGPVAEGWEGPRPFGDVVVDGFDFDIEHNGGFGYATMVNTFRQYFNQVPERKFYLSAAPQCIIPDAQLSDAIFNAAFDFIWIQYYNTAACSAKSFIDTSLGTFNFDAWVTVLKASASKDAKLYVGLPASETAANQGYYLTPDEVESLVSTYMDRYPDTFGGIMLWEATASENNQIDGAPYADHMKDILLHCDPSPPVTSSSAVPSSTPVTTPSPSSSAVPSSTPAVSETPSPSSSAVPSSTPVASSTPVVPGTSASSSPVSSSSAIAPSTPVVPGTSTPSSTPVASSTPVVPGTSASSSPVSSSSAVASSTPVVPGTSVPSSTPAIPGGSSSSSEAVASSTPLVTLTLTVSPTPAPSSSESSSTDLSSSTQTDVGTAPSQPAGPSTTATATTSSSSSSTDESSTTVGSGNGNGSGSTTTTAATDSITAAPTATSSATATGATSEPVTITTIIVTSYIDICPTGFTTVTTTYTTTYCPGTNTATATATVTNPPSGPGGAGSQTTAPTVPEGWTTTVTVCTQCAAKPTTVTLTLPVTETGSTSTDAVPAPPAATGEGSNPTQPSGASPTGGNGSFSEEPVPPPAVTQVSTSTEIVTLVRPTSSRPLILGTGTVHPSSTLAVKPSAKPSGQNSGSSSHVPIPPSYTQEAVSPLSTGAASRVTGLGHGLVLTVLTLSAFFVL
Assay [20] in a line: Inhibition of Saccharomyces cerevisiae CTS1 incubated for 70 mins by fluorescence method.
In assay [21] the test system is Candida albicans. In words: Antifungal activity against Candida albicans A9540 infected in iv dosed ICR mouse assessed as protection against fungus-induced lethal infection dosed once immediately following fungal challenge and measured on day 20 post infection. The assay is classed as functional. The following applies: 480 h, time 20 day, read-out: PD50.
Assay [22] is described as follows: Inhibition of fungi 1,3-beta-D-glucan synthase.
Assay [23] has as its system Aspergillus fumigatus. In words: Antifungal activity against Aspergillus fumigatus CF1083 infected in iv dosed mouse model of pulmonary aspergillosis administered once daily for 4 days and measured on day 14. The class given is functional. The note with it: 336 h, time 14 day.

With `CCCC(C)Oc1cccc(NC(=O)c2cccnc2)c1` (configuration not stated), the MIC worked out at 8 µg/mL (≈ 28.1 µM) in assay [1], 4 µg/mL (≈ 14.1 µM) in [2] and 4 µg/mL (≈ 14.1 µM) in [3].

As for `CCCCCCCCCCCCC[C@H]1OC(=O)[C@H](CCCNC(=O)[C@@H](N)CCCN)NC(=O)[C@@H]([C@@H](C)O)NC(=O)CNC(=O)[C@H]([C@H](O)CC(N)=O)NC(=O)[C@H]2[C@@H](O)CCN2C(=O)[C@H]([C@@H](C)O)NC(=O)[C@@H]2C[C@@H](O)CN2C(=O)[C@H](C(C)C)NC(=O)[C@H](Cc2ccc(O)cc2)NC(=O)[C@@H](C)NC(=O)[C@H]([C@@H](C)O)NC1=O`, the pIC50 in assay [4] is 8.10.

`CCC(O)/C=C/C=C\C=C\C(=O)OC[C@H]1O[C@@H](O[C@H]2[C@H](OC(=O)/C=C/C=C/C[C@H](O)/C(C)=C/C=C/CC[C@@H](C)CC)[C@@H](O)[C@@]3(OCc4cc(O)cc(O)c43)O[C@@H]2CO)[C@H](O)[C@@H](O)[C@H]1O` (some centres not stated): the MIC in assay [5], in assay [6], in assay [7], in assay [8], in assay [9] and in assay [12] was 0.1 µg/mL (≈ 0.111 µM) in each case. The MIC in assay [13], in assay [14], in [15], in [16] and in [18] was 0.1 µg/mL (≈ 0.111 µM) throughout. Moreover, the IC50 was 0.02 µg/mL (≈ 0.0222 µM) in [10], greater than 250 µg/mL in assay [11] and greater than 250 µg/mL in [17].

Consider `Cc1ccc(OCC(O)CNC2Cc3ccccc3C2)cc1C` (configuration not stated), for which the pIC50 in assay [19] is 5.04; in assay [20] it was 5.62.

Turning to `CN[C@@H]1[C@H](O[C@@H]2OC[C@@H](O)[C@H](O)[C@H]2O)[C@@H](O)[C@H](O[C@H]2c3cc(C)c(C(=O)N[C@H](C)C(=O)O)c(O)c3-c3c(cc4c(c3O)C(=O)c3cc(OC)cc(O)c3C4=O)[C@@H]2O)O[C@@H]1C` [PRADIMICIN A], the ED50 in assay [21] came out at 8.9 mg/kg.

`CCCCCCCCCCCCC[C@H]1OC(=O)[C@H](CCCN(CCCN)C(=O)[C@H](CCCN)N(CCN)CCN)NC(=O)[C@@H]([C@@H](C)O)NC(=O)CNC(=O)[C@H]([C@H](O)CC(N)=O)NC(=O)[C@H]2[C@@H](O)CCN2C(=O)[C@H]([C@@H](C)O)NC(=O)[C@@H]2C[C@@H](O)CN2C(=O)[C@H](C(C)C)NC(=O)[C@H](Cc2ccc(O)cc2)NC(=O)[C@@H](C)NC(=O)[C@H]([C@@H](C)O)NC1=O`: in assay [22], the pIC50 is 9.60. Also, the ED50 in assay [23] was 5.2 mg/kg.

As to `CCCCCCCCCCCCC[C@H]1OC(=O)[C@H](CCCN(CCN)C(=O)[C@H](CCCN)N(CCN)CCN)NC(=O)[C@@H]([C@@H](C)O)NC(=O)CNC(=O)[C@H]([C@H](O)CC(N)=O)NC(=O)[C@H]2[C@@H](O)CCN2C(=O)[C@H]([C@@H](C)O)NC(=O)[C@@H]2C[C@@H](O)CN2C(=O)[C@H](C(C)C)NC(=O)[C@H](Cc2ccc(O)cc2)NC(=O)[C@@H](C)NC(=O)[C@H]([C@@H](C)O)NC1=O`, in assay [22], the pIC50 is 9.70. Moreover, in assay [23], the ED50 was determined as 5.2 mg/kg.

`CCCCCCCCCCCCC[C@H]1OC(=O)[C@H](CCCN(CCN)CCN)NC(=O)[C@@H]([C@@H](C)O)NC(=O)CNC(=O)[C@H]([C@H](O)CC(N)=O)NC(=O)[C@H]2[C@@H](O)CCN2C(=O)[C@H]([C@@H](C)O)NC(=O)[C@@H]2C[C@@H](O)CN2C(=O)[C@H](C(C)C)NC(=O)[C@H](Cc2ccc(O)cc2)NC(=O)[C@@H](C)NC(=O)[C@H]([C@@H](C)O)NC1=O`: in assay [4], the pIC50 was 8.70.

As to `CC[C@H](C)CC/C=C/C=C(\C)[C@@H](O)C/C=C/C=C/C(=O)O[C@H]1[C@H](O)[C@@H](CO)O[C@]2(OCc3cc(O)cc(O)c32)[C@@H]1O`, the MIC in [5], in [6], in [7], in assay [8], in [9] and in assay [12] was 0.1 µg/mL (≈ 0.174 µM) throughout. Further, the MIC in assay [13], in [14], in assay [15], in [16] and in [18] was 0.1 µg/mL (≈ 0.174 µM) throughout.

The term MIC denotes the least concentration at which growth counts as inhibited. Broadly, the pIC50 is the IC50 on a negative log10 scale, so that one unit is a factor of ten. A lower pIC50 goes with a high IC50. For orientation: IC50 means the concentration needed to halve the response being measured.

For the origin of these results see ChEMBL document CHEMBL4715849, “Recent Progress in the Discovery of Antifungal Agents Targeting the Cell Wall” (J Med Chem, 2020).
